One experiment deals with ovarian PDX model OVC134. Nature of the experiment: Niraparib and cabozantinib combination in ovarian PDX model OVC134. In kind it is in vivo, mouse.
The subject of experiment [1] is A2780 (BRCA wt, HRD−) ovarian cancer cell line-derived xenograft. Nature of the experiment: Niraparib and cabozantinib combination in ovarian cancer cell line-derived xenograft model A2780. Conditions: A2780, Balb/C nude female mice, 2 weeks; niraparib 60 mg/kg po qd, cabozantinib 30 mg/kg po qd; end of treatment. In kind it is in vivo, mouse.
In another experiment the test system is TNBC PDX model MAXF 857. The experiment in a line: Niraparib+bevacizumab and niraparib+cabozantinib combinations in TNBC PDX model MAXF 857. In kind it is in vivo, mouse. Conditions: for Tumor growth inhibition (TGI): MAXF 857, NMRI nude female mice, 5 weeks, bevacizumab 20 mg/kg iv qw, cabozantinib 30 mg/kg po qd, end of treatment.
Experiment [2] deals with A2780 (BRCA wt, HRD−) ovarian cancer cell line-derived xenograft. Nature of the experiment: Niraparib and bevacizumab combination in ovarian cancer cell line-derived xenograft model A2780. In kind it is in vivo, mouse. The following applies: A2780, CB-17 SCID female mice, 2 weeks; niraparib 60 mg/kg po qd, bevacizumab 10 mg/kg iv qw; end of treatment.

A value given as a limit tells only on which side of the number the result lay.

Turning to `COc1cc2nccc(Oc3ccc(NC(=O)C4(C(=O)Nc5ccc(F)cc5)CC4)cc3)c2cc1OC` [cabozantinib], the “Tumor growth inhibition (TGI)” value with ovarian PDX model OVC134 (OVC134, Balb/C nude female mice, 7 weeks, cabozantinib 30 mg/kg po qd, end of treatment) came out at 83%; in experiment [1], 51%; in the experiment on TNBC PDX model MAXF 857, 65%.
As for `NC(=O)c1cccc2cn(-c3ccc([C@@H]4CCCNC4)cc3)nc12` [niraparib, (3S)-3-[4-{7-(aminocarbonyl)-2H-indazol-2-yl}phenyl]piperidine], the “Sensitivity of the model to monotherapy (anti-tumor activity)” value with ovarian PDX model OVC134 (ovarian PDX model OVC134, 7 weeks) was “very sensitive”; in the experiment with TNBC PDX model MAXF MX1 (TNBC PDX model MAXF MX1, 5 weeks), “very sensitive”. Also, the “Tumor growth inhibition (TGI)” value with TNBC PDX model MAXF MX1 (MAXF MX1, NMRI nude female mice, 5 weeks, niraparib 50 mg/kg po qd, end of treatment) is reported as 99%; in experiment [2], under 40%; in experiment [1], 18%.
“bevacizumab: recombinant humanized monoclonal antibody that can block angiogenesis and inhibit vascular endothelial growth factor A (VEGF-A)”: the “Tumor growth inhibition (TGI)” value in experiment [2] is recorded as 55%; in the experiment on TNBC PDX model MAXF 857, 76%. Moreover, the “Sensitivity of the model to monotherapy (anti-tumor activity)” value in the experiment on TNBC PDX model MAXF 857 (TNBC PDX model MAXF 857, 5 weeks) was “very sensitive”.
